The values below come from PubChem BioAssay (NCI).

What all share (assay): NCI-60 cell line screen, 48 h
Assay [1] deals with M19-MEL melanoma.
Assay [2] has as its system HOP-18 NSCLC.
Assay [3] deals with KM20L2 colon.
The subject of assay [4] is DMS 114 small cell lung.
For assay [5], the system named is MCF7 breast.
Assay [6] concerns LXFL 529 NSCLC.
The subject of assay [7] is 786-0 renal.
Assay [8] has as its system T-47D breast.
The test system of assay [9] is HS 578T breast.
Assay [10] deals with DU-145 prostate.
The subject of assay [11] is MDA-MB-435.
Assay [12] deals with SR leukemia.
The subject of assay [13] is PC-3 prostate.

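1) Cells in 96-well plates. 2) Compound, 48 h, 5 concentrations. 3) Linear interpolation between surrounding doses. 4) Unreached endpoint = highest concentration. The concentration for 50% growth inhibition is given as GI50. TGI marks complete inhibition of growth.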

In the case of `Cc1nc2ccccc2c(=O)n1CC(=O)O`, the TGI in assay [1], in [2], in assay [3], in assay [4] and in assay [5] was over 100 µM throughout.
As to `CC[C@@H](C(=O)[C@@H](C)[C@@H](O)[C@H](C)CCc1ccc(C)c(O)c1C(=O)O)[C@H]1O[C@](CC)([C@H]2CC[C@](O)(CC)[C@H](C)O2)C[C@@H]1C`, the TGI in assay [1] was 4.06 µM; in assay [6] it was 4.94 µM; in [2], 13.1 µM; in assay [3] it was 11.6 µM; in assay [4] it was 4.15 µM; in assay [7], 13.5 µM.
On to `Cc1ccc(/C(=C/C=C(C#N)C#N)Sc2cc(Cl)ccc2Cl)cc1`, for which the TGI in [8] was 67.5 µM; in [9], 9.23 µM; in assay [10], 13.9 µM; in assay [5], over 100 µM; in [11], 7.46 µM; in [7], 5.01 µM.
`O=C(Nc1ccc(Cl)cc1)/C(Cc1cccc[n+]1[O-])=N\Nc1ccc([N+](=O)[O-])cc1[N+](=O)[O-]`: the TGI in [1], in assay [6], in assay [3], in [4] and in [7] was over 100 µM in each case.
As to `CC1(C)CCc2cc3c(-c4ccccc4)cc(=O)oc3cc2O1`, the TGI in assay [1], in assay [6], in assay [2], in assay [3] and in assay [4] was over 100 µM each time.
`O=C1Nc2ccccc2Nc2nc3cccccc-3c21`: the TGI in [1], in [6], in assay [12], in assay [3], in assay [4] and in assay [7] was over 100 µM throughout.
On to `CCOc1ccc2c(ccc(/C=C\c3cc(C)c4cccnc4c3O)[n+]2C)c1`, for which the TGI is over 100 µM in assay [1]; 6.2 µM in [8]; 14 µM in [6]; over 100 µM in assay [9]; 6.14 µM in assay [13]; 7.49 µM in [2]. For the same molecule, the TGI in assay [10] is 18.6 µM; in assay [12], 5.73 µM; in assay [3], 37 µM; in assay [11] it was 13.3 µM; in assay [7], 29.3 µM.
As to `c1ccc2c(c1)nc1n2CSC1`, the TGI in assay [1], in assay [6], in assay [2], in [3] and in [4] was over 100 µM each time.
Consider `O=C(O)c1cc(=O)[nH]c(=S)[nH]1`, for which the TGI in assay [8], in assay [9], in assay [13], in [10], in [5] and in assay [11] was over 100 µM in each case. The same molecule had a TGI in assay [7] of over 100 µM.
With `CN1C2C=C(c3ccccc3)CC1CC2` (centres undefined), the TGI in [1], in [6], in assay [2], in [12], in assay [3] and in assay [7] was over 100 µM throughout.
In the case of `Cc1ccc(S(=O)(=O)Oc2cc(S(=O)(=O)O)cc3cc(S(=O)(=O)O)cc(N)c23)cc1`, the TGI in assay [8], in [9], in assay [13], in [10], in [12] and in assay [5] was over 100 µM throughout. Besides, the TGI in assay [11] and in assay [7] was over 100 µM each time.
Regarding `CN1CCN(Cc2ccc(NC(=O)c3ccc(C#N)c(C#Cc4cnc(N)c5ncccc45)c3)cc2C(F)(F)F)CC1`, in assay [8], the GI50 was 28.6 µM and the TGI was over 100 µM.
Regarding `[C-]#[O+].[Cl][Sn]([Cl])[Cl].[Cl][Sn]([Cl])[Cl].[Pt].c1ccncc1`, the TGI in [3] and in [5] was over 100 µM each time. Besides, the GI50 in [5] is over 100 µM.
As to `CC(=O)[O-].CC(=O)[O-].[NH2-].[Pt+2].c1ccncc1`, the GI50 in [8] is 59.4 µM; in assay [9], 98.7 µM; in [13], over 100 µM; in [10], 4.62 µM; in assay [5], 19.4 µM; in assay [11], 53.2 µM. Moreover, the TGI in [8] was over 100 µM; in assay [9] it was over 100 µM; in assay [13], over 100 µM; in [10], 51.9 µM; in assay [5], 65.9 µM; in assay [11], over 100 µM. The TGI in [7] is over 100 µM.
On to `Cc1cccc2c(N)c3cccc(C(=O)NCCN(C)C)c3nc12`, for which the TGI in [8] turned out to be 0.513 µM; in assay [13] it was 0.357 µM; in assay [10], 0.639 µM; in [12] it was 0.0347 µM; in assay [11], 0.321 µM.
As to `CC(C)=CC(=O)OC1C2C(C)C(=O)OC2C(O)C(C)C2C=CC(=O)C21C` (centres undefined), the TGI was 8.42 µM in assay [1]; 11.2 µM in assay [2]; 7.76 µM in assay [3]; 7.19 µM in [4]; 11.1 µM in assay [5].
As to `CC(C)=CCc1c(C)cc2cc3c(c(O)c2c1O)C(O)=CC(=O)C3(CC=C(C)C)C/C=C(\C)CO` (centres undefined), the TGI worked out at 79.9 µM in [1]; 35.3 µM in assay [2]; 76.6 µM in [3]; 82 µM in assay [4]; 84.3 µM in assay [5].
`CCOP(=O)(OCC)C(Cc1ccc(OC)c(OC)c1)N=C(c1ccccc1)c1ccccc1` (centres undefined): the TGI in assay [8] was 56.8 µM; in assay [13], over 100 µM; in assay [10], over 100 µM; in assay [12], 46.4 µM; in assay [5], 55.5 µM; in assay [11] it was over 100 µM.
As to `CCOc1ccc(/C=C/[N+](=O)[O-])cc1`, the GI50 in assay [8] was 17.6 µM; in assay [9] it was 35.3 µM; in assay [13], 12.4 µM; in assay [10], 10.4 µM; in [12] it was 2.56 µM; in [5], 3.4 µM. In assay [11], the GI50 is 3.18 µM. Further, the TGI was 42.8 µM in assay [8]; over 100 µM in assay [9]; 33.7 µM in assay [13]; 22.2 µM in assay [10]; 6.37 µM in assay [12]; 13.5 µM in [5]. This molecule also had a TGI in assay [11] of 13.7 µM.
As to `O=C(Nc1nc2ccc([N+](=O)[O-])cc2[n+]([O-])n1)C(F)(F)F`, the TGI is over 100 µM in assay [8]; over 100 µM in assay [13]; over 100 µM in assay [10]; over 100 µM in assay [12]; 52.4 µM in [5]; 32 µM in assay [11]. This molecule yielded a TGI in assay [7] of over 100 µM.
As for `CC1=C[C@]2(CC(C)C3C(CC4(C)C5CCC6C(C)(C)C(=O)CC[C@@]67C[C@@]57CC[C@]34C)O2)OC1=O` (some centres undefined), the TGI was over 100 µM in assay [6], over 100 µM in assay [2], over 100 µM in assay [12] and 77.1 µM in [4].
